In paper PMC8219695 (Nature Communications, 2021):
“And” between values parts separate entries of the source, which are not always exact repeats. Identical values can stand only once.

Key:
[1] = biological target: hKOR (Homo sapiens, UniProt P41145); test: CAMYEL BRET antagonism assay at hKOR (inhibition of U-50,488); assay type: cell-based; details: for raw BRET response, antagonist activity at the hKOR (Supplementary Figure 10A): vs EC80 U50,488, replicate raw values
[2] = biological target: hDOR (Homo sapiens, UniProt P41143); test: CAMYEL BRET antagonism assay at hDOR (inhibition of DPDPE); assay type: cell-based; details: for Antagonist activity at the hDOR (raw signal): individual replicates, Supplementary Figure 9A source data
[3] = system: mice; details: previously determined; cited from earlier work
[4] = system: WT C57 and MOR KO mice; test: Tail-flick in wild-type and MOR KO mice; assay type: in vivo, mouse; details: individual animals
Description: CD1 mice (n = 10), at peak analgesic time point. […] Dose–response curves of 22 (s.c.), in the tail-flick assay was evaluated 15 min post drug administration in WT, C57 mice (n = 8) and MOR KO mice (n = 5). Each point represents mean ± SEM.
To confirm that the low-efficacy analgesia is driven by MOR, and no other targets or mechanisms (e.g., other opioid receptors or non-opioid off-targets), we performed the mouse tail-flick assay in wild-type (WT), and MOR knockout (MOR KO) mice with the same genetic background (Fig. 9e).
For analgesic testing in KO animals, wild-type, male C57BL/6 mice (22–33 g), 10–12 weeks were purchased from the Jackson Lab (Bar Harbor, ME). These mice were kept at a constant temperature of 22 ± 2 °C, and relative humidity was maintained at 40–50%. Exon-1/Exon-11 MOR-1 KO mice on a C57 background were bred in the Pintar laboratory at Rutgers University. All mice were maintained on a 12-hour light/dark cycle with food and water available ad libitum, and housed in groups of five until testing. All testing was done in the light cycle.
Analgesia was tested in wild-type and MOR KO animals by the radiant heat tail-flick technique using an IITC Model 33 Tail Flick Analgesia Meter as previously described. The intensity was set to achieve a baseline between 2 and 3 s. Tail-flick antinociception was assessed as an increase in baseline latency, with a maximal 10 s latency to minimize damage to the tail. Data were analyzed as percent maximal effect, % MPE, which was calculated according to the formula: % MPE [(observed latency − baseline latency)/(maximal latency − baseline latency)] × 100. Compounds were administered s.c. as indicated in the figures, and analgesia was assessed at the peak effect (15 min). Mice were tested for analgesia with cumulative subcutaneous doses of the drug until the mouse can withstand the maximal latency. Once the mouse reached the maximal latency, the mouse was no longer given higher doses. In vivo experiments were evaluated using GraphPad Prism 8, San Diego, CA as described above. […]
dilution series was prepared for the desired doses of 0.1, 0.3, 1, 3, and 10 mg/kg (concentrations 0.01 mg/mL, 0.03 mg/mL, 0.1 mg/mL, 0.3 mg/mL, and 1 mg/mL respectively). Solutions were filtered through a PTFE 0.45μm syringe filter and administered s.c. at a max volume of 300μL.
Tail Flick (Dose – response)
Tail flick antinociception was determined using the radiant heat tail flick technique using an Ugo Basile model 37360 instrument as previously described.21,22 The intensity was set to achieve a baseline between 2 and 3 s. Baseline latencies were determined before experimental treatments for all mice. Tail flick antinociception was assessed as an increase in baseline latency, with a maximal 15 s latency to minimize damage to the tail. Data were analyzed as percent maximal effect, %MPE, and was calculated according to the formula: % MPE = [(observed latency – baseline latency)/(maximal latency – baseline latency)] × 100.
Compounds were injected subcutaneously (s.c.) and antinociception was assessed at the peak effect. Mice were tested for analgesia with cumulative subcutaneous doses of the drug until the mouse can withstand the maximal latency. Once the mouse reached the maximal latency, the mouse was no longer given higher doses. The analgesia experiments were performed by blinding the experimenter to the identity of 7OH versus 11-F-7OH. In vivo experiments were evaluated using GraphPad Prism 8, San Diego, CA as described […]
Analgesia was tested in wild-type and MOR KO animals by the radiant heat tail-flick technique using an IITC Model 33 Tail Flick Analgesia Meter as previously described.23 The intensity was set to achieve a baseline between 2 and 3 s. Tail flick antinociception was assessed as an increase in baseline latency, with a maximal 10 s latency to minimize damage to the tail. Data were analyzed as percent maximal effect, %MPE, which was calculated according to the formula: % MPE [(observed latency − baseline […]

Chain of hDOR (P41143 whole entry): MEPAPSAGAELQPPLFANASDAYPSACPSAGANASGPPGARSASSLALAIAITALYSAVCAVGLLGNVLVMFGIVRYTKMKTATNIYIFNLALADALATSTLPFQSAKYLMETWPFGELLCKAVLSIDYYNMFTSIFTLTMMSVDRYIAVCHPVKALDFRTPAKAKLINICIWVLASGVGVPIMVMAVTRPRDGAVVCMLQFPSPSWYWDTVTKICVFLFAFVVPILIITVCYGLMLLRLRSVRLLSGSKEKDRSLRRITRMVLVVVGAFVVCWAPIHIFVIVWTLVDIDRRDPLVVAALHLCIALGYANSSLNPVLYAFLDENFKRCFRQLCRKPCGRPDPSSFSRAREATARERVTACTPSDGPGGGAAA
Chain of hKOR (P41145 whole entry): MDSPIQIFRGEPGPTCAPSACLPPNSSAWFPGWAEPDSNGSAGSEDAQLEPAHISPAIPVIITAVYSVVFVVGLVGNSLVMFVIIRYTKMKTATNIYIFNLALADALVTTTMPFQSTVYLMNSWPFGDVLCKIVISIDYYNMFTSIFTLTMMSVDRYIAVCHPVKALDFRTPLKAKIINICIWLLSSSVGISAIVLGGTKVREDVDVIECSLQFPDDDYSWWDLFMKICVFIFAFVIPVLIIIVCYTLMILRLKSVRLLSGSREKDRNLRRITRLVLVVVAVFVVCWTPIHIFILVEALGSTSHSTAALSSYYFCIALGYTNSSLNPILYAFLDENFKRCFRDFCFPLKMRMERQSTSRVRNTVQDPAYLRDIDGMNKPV

SMILES: CC[C@@H]1CN2CC[C@@]3(O)C(=Nc4cc(Br)cc(OC)c43)[C@@H]2C[C@@H]1/C(=C\OC)C(=O)OC [11-Br-7OH (24), 11-Br-7OH]
- raw BRET response, antagonist activity at the hKOR (Supplementary Figure 10A) ([1]; Log[drug] (M) -5): 0.01109 and 0.005199 and -0.00757 and 0.006133 and 0.001515 and 0.001933 and 0.02329 and 0.01475 and 0.01349
- raw BRET response, antagonist activity at the hKOR (Supplementary Figure 10A) ([1]; Log[drug] (M) -6): 0.0143 and 0.01072 and 0.01916 and 0.07074 and 0.07832 and 0.07872 and 0.07001 and 0.07357 and 0.05372
- raw BRET response, antagonist activity at the hKOR (Supplementary Figure 10A) ([1]; Log[drug] (M) -7): 0.06437 and 0.07728 and 0.08334 and 0.1589 and 0.1581 and 0.1664 and 0.1453 and 0.1454 and 0.1482
- raw BRET response, antagonist activity at the hKOR (Supplementary Figure 10A) ([1]; Log[drug] (M) -8): 0.1403 and 0.1362 and 0.1374 and 0.1753 and 0.1713 and 0.1791
- raw BRET response, antagonist activity at the hKOR (Supplementary Figure 10A) ([1]; Log[drug] (M) -9): 0.09403 and 0.08676 and 0.08107 and 0.1704 and 0.1868 and 0.1861 and 0.1635 and 0.1852 and 0.1823
- raw BRET response, antagonist activity at the hKOR (Supplementary Figure 10A) ([1]; Log[drug] (M) -10): 0.09782 and 0.1078 and 0.1073 and 0.1956 and 0.1911 and 0.1936 and 0.176 and 0.1692 and 0.1714
- raw BRET response, antagonist activity at the hKOR (Supplementary Figure 10A) ([1]; Log[drug] (M) -11): 0.1073 and 0.09367 and 0.109 and 0.2072 and 0.1833 and 0.1925 and 0.1707 and 0.1895 and 0.1659
- antagonism at hKOR ([1]; inhibition of reference agonist U50,488 (EC80)): full inhibition
- Antagonist activity at the hDOR (raw signal) ([2]; Log[drug] (M) -5, against EC80 DPDPE): 0.02104 and 0.01573 and 0.009966 and -0.01593 and -0.01928 and -0.02427 and 0.02048 and 0.01948 and 0.01559
- Antagonist activity at the hDOR (raw signal) ([2]; Log[drug] (M) -6, against EC80 DPDPE): 0.04515 and 0.04385 and 0.04449 and 0.03157 and 0.04067 and 0.05399 and 0.01786 and 0.03044 and 0.02432
- Antagonist activity at the hDOR (raw signal) ([2]; Log[drug] (M) -7, against EC80 DPDPE): 0.1057 and 0.11 and 0.09817 and 0.09774 and 0.0895 and 0.09531 and 0.04711 and 0.02047 and 0.02787
- Antagonist activity at the hDOR (raw signal) ([2]; Log[drug] (M) -8, against EC80 DPDPE): 0.1076 and 0.1055 and 0.1083 and 0.107 and 0.1014 and 0.09451 and 0.04651 and 0.03638 and 0.03747
- Antagonist activity at the hDOR (raw signal) ([2]; Log[drug] (M) -9, against EC80 DPDPE): 0.1047 and 0.1019 and 0.1172 and 0.09234 and 0.1022 and 0.1004 and 0.02352 and 0.04174 and 0.03714
- Antagonist activity at the hDOR (raw signal) ([2]; Log[drug] (M) -10, against EC80 DPDPE): 0.1014 and 0.1021 and 0.1072 and 0.1078 and 0.1042 and 0.1009 and 0.03392 and 0.02253 and 0.04348
- Antagonist activity at the hDOR (raw signal) ([2]; Log[drug] (M) -11, against EC80 DPDPE): 0.122 and 0.117 and 0.1095 and 0.09539 and 0.09115 and 0.09894 and 0.04038 and 0.02714 and 0.0351
- antagonism at hDOR ([2]; inhibition of reference agonist DPDPE (EC80)): full inhibition

SMILES: CC[C@@H]1CN2CC[C@@]3(O)C(=Nc4cccc(OC)c43)[C@@H]2C[C@@H]1/C(=C\OC)C(=O)OC [7OH, 7-Hydroxymitragynine, reference compound]
- ED50 (95% CI) mouse tail-flick [3]: 0.57 (0.19–1.7) mg/kg

SMILES: CC[C@@H]1CN2CC[C@@]3(O)C(=Nc4cc(F)cc(OC)c43)[C@@H]2C[C@@H]1/C(=C\OC)C(=O)OC [11-F-7OH (22), 11-Fluoro-7-hydroxymitragynine]
- Antinociceptive effect, MOR KO ([4]; dose 0.1): 40.7407 and 22.4138 and -2.941 and 22.6277 and 21.0084
- Antinociceptive effect, MOR KO ([4]; dose 0.3): 14.0741 and 33.6207 and 22.0588 and 13.1387 and 14.2857
- Antinociceptive effect, MOR KO ([4]; dose 1): 30.3704 and 1.724 and 19.8529 and 38.6861 and -26.8908
- Antinociceptive effect, MOR KO ([4]; dose 3): 30.3704 and -6.897 and 22.0588 and 27.0073 and 1.681
- Antinociceptive effect, MOR KO ([4]; dose 10): 100 and 18.1034 and -5.882 and 26.2774 and -0.8403
- Antinociceptive effect, Wild Type ([4]; dose 0.1): 7.432 and 25.9259 and 5.926 and 9.722 and -11.5108 and 0 and 3.521 and -7.971
- Antinociceptive effect, Wild Type ([4]; dose 0.3): 22.2973 and 19.2593 and 0 and 16.6667 and -0.7194 and 4.895 and -7.746 and 40.5797
- Antinociceptive effect, Wild Type ([4]; dose 1): 71.6216 and -1.481 and 44.4444 and 10.4167 and 5.036 and 71.3287 and 100 and 14.4927
- Antinociceptive effect, Wild Type ([4]; dose 3): 100 (3×) and 5.185 and 43.7037 and 11.1111 and 41.0072 and -2.899
- Antinociceptive effect, Wild Type ([4]; dose 10): 62.1622 and 30.3704 and 25.1852 and 100 (2×) and 12.2302 and 25.1748 and 47.1014
